From US9353082B2, “Pharmaceutical compounds” (BIAL—PORTELA & CA, S.A., priority 2008, dated 2016)

How the values were obtained:
FAAH [1] = target: T1, FAAH (Rattus norvegicus, UniProt P97612); test: In vitro FAAH activity in rat brain membranes, 3H-AEA substrate, % of control; format: biochemical, Wistar rats; conditions: low value = strong inhibitor; for In Vitro 100 nM (FAAH activity, % of control): rat brain membranes, compound at 100 nM; for In Vitro FAAH activity, 100 nM: 100 nM test compound
T1 construct: Frozen brains (without cerebellum) from Wistar rats were used; from tissue; host or cells: Wistar rat brain (without cerebellum), washed membrane pellets
T1 sequence (P97612 1-579): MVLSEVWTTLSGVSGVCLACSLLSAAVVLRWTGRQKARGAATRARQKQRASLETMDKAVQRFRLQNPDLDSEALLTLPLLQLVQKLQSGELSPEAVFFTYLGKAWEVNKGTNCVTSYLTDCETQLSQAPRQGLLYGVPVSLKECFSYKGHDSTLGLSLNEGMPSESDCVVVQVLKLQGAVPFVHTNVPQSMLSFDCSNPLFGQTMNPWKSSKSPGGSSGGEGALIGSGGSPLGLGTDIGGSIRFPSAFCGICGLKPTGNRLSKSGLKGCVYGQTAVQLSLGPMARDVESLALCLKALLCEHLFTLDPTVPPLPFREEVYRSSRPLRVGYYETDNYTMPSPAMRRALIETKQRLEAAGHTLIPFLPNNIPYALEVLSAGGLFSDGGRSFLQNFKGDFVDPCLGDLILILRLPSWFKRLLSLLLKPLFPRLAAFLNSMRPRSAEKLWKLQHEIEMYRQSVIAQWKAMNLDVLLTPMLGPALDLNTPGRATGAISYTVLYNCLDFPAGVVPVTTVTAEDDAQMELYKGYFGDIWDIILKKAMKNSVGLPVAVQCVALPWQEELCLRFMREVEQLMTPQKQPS
How it was run: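 FAAH activity measured as 3H-ethanolamine released from 2 μM [3H]AEA over 10 min by rat brain membrane preparation, after 15 min 37 °C preincubation with test compound at 10 or 0.1 μM. Charcoal-separated supernatant scintillation-counted; values expressed as % of control minus no-protein blank.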

FAAH [2] = target: T2, FAAH (Mus musculus, UniProt O08914); test: In vivo FAAH inhibition after oral dosing, remaining activity in brain homogenate (BRh, central nervous tissue); parameters: species or system NMRI mice; conditions: brain homogenate; for In Vivo BRh 3 mg·kg 8 h (remaining FAAH activity, % of control): 8 h after dosing, low value = strong inhibitor
T2 construct: A fragment of liver, left lung lobe and brain without cerebellum were removed; from tissue; host or cells: male NMRI mice; brain (without cerebellum) and liver homogenates
T2 sequence (O08914 1-579): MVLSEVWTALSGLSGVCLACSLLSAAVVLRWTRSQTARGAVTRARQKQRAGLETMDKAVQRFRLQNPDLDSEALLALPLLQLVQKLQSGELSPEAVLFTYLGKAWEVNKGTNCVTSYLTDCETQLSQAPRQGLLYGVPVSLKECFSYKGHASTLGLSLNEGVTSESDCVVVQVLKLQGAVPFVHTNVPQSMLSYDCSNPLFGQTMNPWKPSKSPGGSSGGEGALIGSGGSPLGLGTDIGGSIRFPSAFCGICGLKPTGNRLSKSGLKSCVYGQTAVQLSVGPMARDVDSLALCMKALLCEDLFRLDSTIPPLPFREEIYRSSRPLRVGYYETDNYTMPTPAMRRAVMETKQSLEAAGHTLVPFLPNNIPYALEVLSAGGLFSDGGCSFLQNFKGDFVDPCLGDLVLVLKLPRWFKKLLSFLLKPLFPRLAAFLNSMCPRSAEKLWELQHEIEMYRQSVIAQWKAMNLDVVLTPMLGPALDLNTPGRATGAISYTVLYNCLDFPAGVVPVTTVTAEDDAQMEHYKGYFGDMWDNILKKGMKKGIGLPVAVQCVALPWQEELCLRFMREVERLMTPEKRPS
How it was run: (§1)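 Remaining FAAH activity is given as % of vehicle-treated controls after blank subtraction, measured by radiolabelled AEA hydrolysis (2 μM AEA, 5 nM 3H-AEA, 37 °C) in brain (10 min) or liver (7 min) homogenates. These came from fasted male NMRI mice dosed orally at 30 or 3 mg/kg.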

FAAH [3] = target: T2, FAAH; test: In vivo FAAH inhibition after oral dosing, remaining activity in liver homogenate (LVh, peripheral tissue); parameters: species or system NMRI mice; conditions: liver homogenate; for In Vivo LVh 3 mg·kg 8 h (remaining FAAH activity, % of control): 8 h after dosing, low value = strong inhibitor
How it was run: as §1

Row | Compound | In Vitro 100 nM (FAAH activity, % of control) (FAAH [1]) | In Vivo BRh 3 mg·kg 8 h (remaining FAAH activity, % of control) (FAAH [2]) | In Vivo LVh 3 mg·kg 8 h (remaining FAAH activity, % of control) (FAAH [3]) | In Vitro FAAH activity, 100 nM (FAAH [1]) | In Vivo BRh 3 mg/kg 8 h, remaining FAAH activity (FAAH [2]) | In Vivo BRh 30 mg/kg 1 h, remaining FAAH activity (FAAH [2]) | In Vivo LVh 3 mg/kg 8 h, remaining FAAH activity (FAAH [3]) | In Vivo LVh 30 mg/kg 1 h, remaining FAAH activity (FAAH [3]) | In Vitro FAAH activity, 10 uM (FAAH [1]; 10 uM test compound)
1 | CN(C(=O)n1cnc(-c2cccc(O)c2)c1)C1CCCCC1 [Compound 307, N-cyclohexyl-4-(3-hydroxyphenyl)-N-methyl-1H-imidazole-1-carboxamide] | 56.2 % of control | 137.6 % of control | 10.1 % of control | – | – | – | – | – | –
2 | CN(C(=O)n1cnc(-c2cc3ccccc3o2)c1)C1CCCCC1 [Compound 334, 4-(benzofuran-2-yl)-N-cyclohexyl-N-methyl-1H-imidazole-1-carboxamide] | 58.2 % of control | 9.9 % of control | 5.1 % of control | – | – | – | – | – | –
3 | CN(C(=O)n1cnc(-c2ccc(O)c(F)c2)c1)C1CCCC1 [Compound 331, N-cyclopentyl-4-(3-fluoro-4-hydroxyphenyl)-N-methyl-1H-imidazole-1-carboxamide] | 3.6 % of control | 4 % of control | 4.9 % of control | – | – | – | – | – | –
4 | O=C(N1CCC2(CC1)OCCO2)n1nnc2ccccc21 [Compound 55, 1H-benzo[d][1,2,3]triazol-1-yl(1,4-dioxa-8-azaspiro[4.5]dec-8-yl)methanone] | – | – | – | 0.2 % of control | 42.6 % of control | 2.2 % of control | 37.8 % of control | 2.5 % of control | –
5 | O=C(N1CCc2ccccc2C1)n1nnc2ccccc21 [Compound 50, (1H-benzo[d][1,2,3]triazol-1-yl)(3,4-dihydroisoquinolin-2(1H)-yl)methanone] | – | – | – | 0 % of control | – | 32.6 % of control | – | 7.8 % of control | –
6 | CC1(C)COCN1C(=O)n1cnc(-c2cccc(Oc3ccc(C(N)=O)cc3)c2)n1 [Compound 209, 4-(3-(1-(4,4-dimethyloxazolidine-3-carbonyl)-1H-1,2,4-triazol-3-yl)phenoxy)benzamide] | – | – | – | 101.5 % of control | 99.8 % of control | – | 70.1 % of control | – | –
7 | CC1(C)COCN1C(=O)n1nnc2ccc(-c3ccccc3)cc21 [Compound no. 361, (4,4-dimethyloxazolidin-3-yl)(6-phenyl-1H-benzo[d][1,2,3]triazol-1-yl)methanone] | 1.3 % of control | 6.3 % of control | 1.4 % of control | – | – | – | – | – | –
8 | O=C(N1CCC(Cc2ccccc2)CC1)n1nnc2ccccc21 [Compound 42, (1H-benzo[d][1,2,3]triazol-1-yl)(4-benzylpiperidin-1-yl)methanone] | – | – | – | 0 % of control | – | 8.4 % of control | – | 6.4 % of control | 0 % of control
9 | CN(C(=O)n1cnc(-c2cccc(-c3cccc(Cl)c3)c2)c1)C1CCCCC1 [Compound 257, 4-(3′-chlorobiphenyl-3-yl)-N-cyclohexyl-N-methyl-1H-imidazole-1-carboxamide] | – | – | – | 65.6 % of control | 60.1 % of control | – | 12.2 % of control | – | –
10 | CC1(C)COCN1C(=O)n1nnc2c(F)cc(F)cc21 [Compound no. 360, (4,6-difluoro-1H-benzo[d][1,2,3]triazol-1-yl)(4,4-dimethyloxazolidin-3-yl)methanone] | 1.6 % of control | 3.1 % of control | 3.7 % of control | – | – | – | – | – | –
11 | NC(=O)c1ccc(Oc2ccc(-c3ncn(C(=O)N4CCN(c5ccccc5)CC4)n3)cc2)cc1 [Compound 148, 4-(4-(1-(4-phenylpiperazine-1-carbonyl)-1H-1,2,4-triazol-3-yl)phenoxy)benzamide] | – | – | – | 0.3 % of control | 113.7 % of control | – | 87.6 % of control | – | –
12 | COc1cccc(-c2cccc(-c3cn(C(=O)N(C)C4CCCCC4)cn3)c2)c1 [Compound 240, N-cyclohexyl-4-(3′-methoxybiphenyl-3-yl)-N-methyl-1H-imidazole-1-carboxamide] | – | – | – | 22.4 % of control | 99 % of control | – | 39.5 % of control | – | –
13 | CN(C(=O)n1cnc(-c2cccnc2)c1)C12CC3CC(CC(C3)C1)C2 [Compound 289, N-methyl-4-pyridin-3-yl-N-tricyclo[3.3.1.13,7]dec-1-yl-1H-imidazole-1-carboxamide] | 109.8 % of control | 113.2 % of control | 96.1 % of control | – | – | – | – | – | –
14 | CN(C(=O)n1cnc(-c2cccc(-c3ccc(C(N)=O)cc3)c2)c1)C1CCCCC1 [Compound 245, 4-(4′-carbamoylbiphenyl-3-yl)-N-cyclohexyl-N-methyl-1H-imidazole-1-carboxamide] | – | – | – | 0.4 % of control | 90.6 % of control | – | 15.8 % of control | – | –
15 | CN(Cc1ccccc1)C(=O)n1cnc(-c2cccc3ccccc23)n1 [Compound 191, N-benzyl-N-methyl-3-(naphthalen-1-yl)-1H-1,2,4-triazole-1-carboxamide] | – | – | – | 21 % of control | 60 % of control | – | 20.8 % of control | – | –
16 | CC1(C)COCN1C(=O)n1cnc(-c2ccc(F)c(O)c2)c1 [Compound 333, (4,4-dimethyloxazolidin-3-yl)(4-(4-fluoro-3-hydroxyphenyl)-1H-imidazol-1-yl)methanone] | 81.9 % of control | 119 % of control | 81.5 % of control | – | – | – | – | – | –
17 | O=C(N1CCC(CCc2ccccc2)CC1)n1nnc2ccccc21 [Compound 100, (1H-benzo[d][1,2,3]triazol-1-yl)(4-phenethylpiperidin-1-yl)methanone] | – | – | – | 0.2 % of control | 68.1 % of control | – | 40.5 % of control | – | –
